Assay results as given in patent US20260097022A1, “COMPOUNDS AND USES THEREOF” (Integrated Biosciences, Inc., priority 2023, published 2026).

Legend:
[1] = system: human red blood cells; experiment: Hemolysis assay; format: cell-based; conditions: up to a final concentration of 100 μM; 1 h at 37° C.
Protocol: Hemolysis assay. Whole human blood containing EDTA (Innovative Resarch IWB1K2E) was centrifuged at 120×g at 4° C., for 5 min and resuspended in Dulbecco's PBS (DPBS: VWR 02-0119-0500). These washing steps were repeated until the supernatant was clear. Red blood cells were then resuspended in DPBS to 5×10^8 cells/mL, and 100 μL of cells was plated into each well of a 96-well clear round-bottom plate. Compounds were added to the indicated concentrations, and DMSO was used as a vehicle. Samples were incubated for 1 h at 37° C., without shaking, after which plates were centrifuged at 1500×g at room temperature for 5 min to pellet cells. 60 μL of the supernatant from each sample was then transferred to a 96-well clear flat-bottom plate, and the absorbance was read at 405 nm using a SpectraMax M3 plate reader to quantify the amount of soluble hemoglobin. Fractional hemolysis was determined by linearly interpolating absorbance values with respect to a positive control (saturation with 10% Triton X-100) and a negative control (1% DMSO vehicle). Results are depicted in FIG. 14.

[2] = biological target: T1, Bcl-2 (Homo sapiens, UniProt P10415); experiment: BCL-2 TR-FRET, inhibition of Bcl-2 binding to a peptide ligand; conditions: at micromolar concentrations
T1 construct: purchased BPS Bioscience 50222
Protocol: BCL-2 TR-FRET. Inhibition of Bcl-2 binding to a peptide ligand was measured using the BCL-2 TR-FRET Assay Kit from BPS Bioscience (BPS Bioscience 50222). Briefly, the provided BCL TR-FRET assay buffer was diluted 1:3 with ultrapure Milli-Q water. The anti-His terbium-labeled donor and dye-labeled acceptor were each diluted 1:100 with diluted assay buffer. The BCL-2 peptide ligand was thawed on ice and diluted 1:40 with diluted assay buffer, and BCL-2 protein was diluted with diluted assay buffer to a working concentration of 1 ng/μL. Test compounds at the indicated final concentrations were prepared as stock 10% DMSO solutions in ultrapure Milli-Q water. The reaction was performed by combining 5 μL diluted donor. 5 μL diluted acceptor. 2 μL test compound. 5 μL diluted ligand, and 3 μL diluted protein in each well of the provided white, flat-bottom 384-well plate. Positive control reactions had 2 μL 10% DMSO in water in lieu of test compound. Negative control reactions had 2 μL 10% DMSO in water and 5 μL diluted assay buffer in lieu of test compound and diluted ligand. Reactions were incubated at room temperature for 3 hours, and fluorescent intensities were measured using a SpectraMax® M5 plate reader and manufacturer software (SoftMax Pro 6) with the following TR-FRET settings; for terbium-labeled donor emission, ex/em. 340/620 nm: lag time. 100 μs: integration time. 500 μs: for dye-acceptor emission, ex/em. 340/665 nm: lag time. 100 μs; integration time. 500 μs. The TR-FRET ratio. 665 nm emission/620 nm emission, was calculated for all reactions, and percentage activity was calculated by linearly interpolating the positive and negative control TR-FRET ratio values between relative activity values of 0) and 1. Experiments were performed in biological duplicate and repeated on independent occasions.

[3] = system: Salmonella typhimurium TA100; experiment: Genotoxicity assay (Ames 384-ISO test); format: cell-based; conditions: 100 μM
Protocol: Genotoxicity assay. An Ames 384-ISO test (6041-1S) from Environmental Bio-Detection Products, Inc, was used following the manufacturer's instructions. Briefly. Salmonella typhimurium TA100 was grown overnight (16-18 h) at 37° C., with shaking at 300 rpm and treated with the provided exposure media and compound samples at the final concentrations indicated. Treatment with the provided 4-nitroquinoline 1-oxide (4NQO), a mutagen, was used as a positive control. Cells were then added to the provided reversion solution, and each sample was split into 48 wells of 384-well plates. Plates were incubated at 37° C., for 2 days, after which the number of revertant (yellow-colored) wells corresponding to each sample was counted. […] An overnight bacterial culture was diluted 1:10.000 in LB medium (Becton Dickinson 244620) and plated using 99 μL working volumes into the wells of a clear flat-bottom 96-well plate. One μL of two-fold dilutions of each test compound in DMSO, starting from a final concentration of 500 μM, was added across wells, and plates were sealed and incubated overnight at 37° C., to determine bacterial growth.

T1 sequence (P10415 whole entry): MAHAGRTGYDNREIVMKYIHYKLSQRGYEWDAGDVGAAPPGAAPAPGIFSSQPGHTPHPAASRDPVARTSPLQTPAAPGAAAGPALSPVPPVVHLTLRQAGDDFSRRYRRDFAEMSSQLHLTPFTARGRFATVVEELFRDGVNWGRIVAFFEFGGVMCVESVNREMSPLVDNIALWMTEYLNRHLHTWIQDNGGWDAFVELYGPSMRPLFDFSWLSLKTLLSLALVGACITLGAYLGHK

Row | SMILES | hemolysis [1] | inhibition of Bcl-2 binding activity to a peptide ligand [2] | reversion of bacterial cultures (mutagenic potential) [3]
1 | COc1ccc(C(=O)Nc2ccc3nc(SCC(=O)Nc4ccccc4F)sc3c2)cc1OC [compound 6] | did not induce significant hemolysis | inhibited Bcl-2 | did not induce significant reversion
2 | Cc1ccccc1C(=O)Nc1ccc2nc(SCC(=O)Nc3ccccc3)sc2c1 [compound 19] | did not induce significant hemolysis | inhibited Bcl-2 | did not induce significant reversion
3 | O=C(Nc1ccc(S(=O)(=O)Nc2ncccn2)cc1)c1ccc(-c2ccccc2)cc1 [BRD-K20733377] | did not induce significant hemolysis | inhibited Bcl-2 | did not induce significant reversion
